Tests used:
CACO-2 cells [1] = test: Pro-Th2 cytokine expression by CACO-2 cells cultured with EYP, HC, MCT or sodium palmitate, with or without UPR inhibitors; type: cell-based, human
Description: To evaluate whether the UPR induces pro-Th2 gene expression in cultured human intestinal epithelial cells, we evaluated the abilities of three UPR inhibitors to inhibit the ability of egg yolk plasma (EYP), heavy cream (HC), medium chain triglycerides (MCT), or sodium palmitate to induce pro-Th2 cytokine expression by CACO-2 cells. CACO-2 cells were cultured for 24 hours with medium alone, EW, negative control, EYP, HC, MCT, or sodium palmitate (positive control for UPR induction), with or without the UPR inhibitors metformin, TUDCA, or 4-PBA. mRNA was prepared, reverse-transcribed, and quantitated by real time PCR. […] CACO-2 cells were obtained from the American Type Culture Collection (ATCC), catalog number HTB-37. These cells were grown in ATCC-formulated Eagle's Minimum Essential Medium (EMEM) (Cat. No. 30-2003), supplemented with fetal bovine serum (FBS) to a final concentration of 20% (ATCC® Cat. No. 30-2020) and Gibco antibiotic-antimycotic mixture. The cells were cultured in 6-well, 12-well, or 24-well culture plates to approximately 85%-90% confluency. On the day of experiment, EMEM medium was prepared with the appropriate concentrations of stimulants and/or inhibitors and added to the cells. Following the period of culture (usually 6 or 24 hours), the cells were washed and lysed, and total RNA was purified using PureLink™ RNA Mini Kit (Thermo Fisher Cat. No. 12183018A). The purified total RNA was used to generate cDNA using a High-Capacity cDNA Reverse Transcription Kit (Applied Biosystems, Cat. No. 4368814). Gene expression was analyzed using the qPCR method with a BioRad My iQ™ Detection system, and compared to the expression of the GAPDH housekeeping gene.

CACO-2 cells [2] = test: UPR-related and pro-Th2 cytokine gene expression in CACO-2 cells cultured with lipid-free peanut extract ± metformin; type: cell-based, human; conditions: CACO-2 cells with peanut extract, treated with metformin
Description: Because the UPR can be induced by multiple mechanisms that are associated with cell stress, including mechanisms that are not associated with lipids, Applicant investigated the ability of aqueous extracts of allergenic foods other than eggs and milk to induce UPR-associated and pro-Th2 cytokine gene expression, and the ability of metformin to suppress these responses. CACO-2 cells were cultured for 24 hours with medium alone or with a lipid-free peanut extract±metformin. mRNA was reverse-transcribed and gene expression was determined by real time PCR.
CACO-2 cells were obtained from the American Type Culture Collection (ATCC), catalog number HTB-37. These cells were grown in ATCC-formulated Eagle's Minimum Essential Medium (EMEM) (Cat. No. 30-2003), supplemented with fetal bovine serum (FBS) to a final concentration of 20% (ATCC® Cat. No. 30-2020) and Gibco antibiotic-antimycotic mixture. The cells were cultured in 6-well, 12-well, or 24-well culture plates to approximately 85%-90% confluency.
On the day of experiment, EMEM medium was prepared with the appropriate concentrations of stimulants and/or inhibitors and added to the cells. […] Gene expression was analyzed using the qPCR method with a BioRad My iQ™ Detection system, and compared to the expression of the GAPDH housekeeping gene.

[3] = system: human intestinal organoids (HIO); test: UPR-associated and pro-Th2 cytokine gene expression in human intestinal organoids injected with palmitate ± metformin or TUDCA; type: cell-based; conditions: lumen injection, FIG. 6A-6B
Description: HIO were produced from human peripheral blood pluripotent stem cells having a single UPR-associated gene deleted by CRISPR/Cas9. Applicant injected the lumens of HIO with culture medium or palmitate to induce increased UPR-associated and pro-Th2 cytokine gene expression, and further injected the HIO lumens with metformin or TUDCA. mRNA levels for the UPR-associated and pro-Th2 cytokine genes were determined by real-time PCR.

BALB/c mice = test: UPR inhibitors in drinking water or oral in mouse model of food (egg) allergy; type: in vivo; conditions: for intestinal UPR-related gene expression (except for BiP and ATF6) / intestinal pro-Th2 cytokine expression: 500 mg/kg/day in drinking water, FIG. 15A-15E; for hypothermia / mouse mast cell protease 1 (MMCP1) response / small intestinal UPR-related gene expression (except ATF6) / small intestinal pro-Th2 cytokine gene expression: mice induced to develop food allergy, 500 mg/kg in drinking water, FIG. 14
Description: BALB/c mice were induced to develop food allergy and were then treated with 500 mg/kg doses of metformin or TUDCA in drinking water.
BALB/c mice with established egg allergy were provided with drinking water that contained 500 mg/kg/day of metformin or TUDCA, or with ordinary drinking water. Both metformin and TUDCA suppressed intestinal UPR-related gene expression (except for BiP and ATF6) and pro-Th2 cytokine expression. Note the large increases in intestinal UPR-associated and pro-Th2 gene expression compared to naïve mice, and the partial suppression of UPR-associated and pro-Th2 genes by metformin and TUDCA (FIG. 15E).
BALB/c mice with established egg allergy were administered egg yolk plasma with or without 1 g/kg/day or 2 g/kg/day of metformin. Pro-Th2 cytokine and UPR-related gene expression was inhibited in skin (FIG. 16A) and lung (FIG. 16B).

CACO-2 cells [4] = test: CACO-2 cells cultured with egg yolk plasma or peanut extract, with or without lipase inhibitor Orlistat; type: cell-based, human; conditions: 24 hours, FIG. 3
Description: CACO-2 cells were cultured for 24 hours with medium alone, egg yolk plasma, or peanut extract, with or without the lipase inhibitor Orlistat. mRNA was extracted and reverse transcribed, after which UPR-associated gene expression and pro-Th2 cytokine gene expression were determined by real time PCR. […] CACO-2 cells were obtained from the American Type Culture Collection (ATCC), catalog number HTB-37. These cells were grown in ATCC-formulated Eagle's Minimum Essential Medium (EMEM) (Cat. No. 30-2003), supplemented with fetal bovine serum (FBS) to a final concentration of 20% (ATCC® Cat. No. 30-2020) and Gibco antibiotic-antimycotic mixture. The cells were cultured in 6-well, 12-well, or 24-well culture plates to approximately 85%-90% confluency. On the day of experiment, EMEM medium was prepared with the appropriate concentrations of stimulants and/or inhibitors and added to the cells. Following the period of culture (usually 6 or 24 hours), the cells were washed and lysed, and total RNA was purified using PureLink™ RNA Mini Kit (Thermo Fisher Cat. No. 12183018A). The purified total RNA was used to generate cDNA using a High-Capacity cDNA Reverse Transcription Kit (Applied Biosystems, Cat. No. 4368814). Gene expression was analyzed using the qPCR method with a BioRad My iQ™ Detection system, and compared to the expression of the GAPDH housekeeping gene.

CACO-2 cells [5] = test: Pro-Th2 cytokine protein production by CACO-2 cells (immunoprecipitation and Western blot); type: cell-based, human; conditions: 24 hr, Western blot, FIG. 4
Description: CACO-2 cells were cultured for 24 hr±palmitate or EYP. Cell lysates were prepared and normalized by protein concentration and direct α/β-tubulin Western blot. Lysates were serially incubated with anti-IL-25+protein G beads, anti-IL-33+protein G beads, and anti-TSLP+protein G beads. Laemmli buffer eluates from beads were analyzed by electrophoresis on a 4-20% polyacrylamide gel, blotted onto a PVDF membrane, and visualized by incubation with biotinylated anti-IL-25, anti-IL-33, or anti-TSLP mAb, followed by streptavidin-peroxidase and ECL WB substrate.

[6] = 24 hours, real time PCR, FIG. 1
[7] = summary statement of Applicant's results

Row | SMILES | suppression of EYP-, HC-, MCT- and palmitate-induced expression of the pro-Th2 cytokines (CACO-2 cells [1]; [6]) | palmitate-induced UPR-associated and pro-Th2 cytokine gene expression [3] | intestinal UPR-related gene expression (except for BiP and ATF6) (BALB/c mice; established egg allergy) | intestinal pro-Th2 cytokine expression (BALB/c mice; established egg allergy) | hypothermia (BALB/c mice) | mouse mast cell protease 1 (MMCP1) response (BALB/c mice) | small intestinal UPR-related gene expression (except ATF6) (BALB/c mice) | small intestinal pro-Th2 cytokine gene expression (BALB/c mice) | established food allergy (BALB/c mice; [7]) | also measured
1 | CN(C)C(=N)N=C(N)N [metformin] | strong suppression | suppressed | suppressed | suppressed | suppression | suppression | suppression | suppression | suppresses | pro-Th2 cytokine gene induction by egg and milk lipid fractions and aqueous extracts of peanuts, walnut, codfish (CACO-2 cells [1]; summary, every allergen tested): suppresses pro-Th2 cytokine gene induction in every case; expression of UPR-related genes (CACO-2 cells [2]; FIG. 2 A): reduced expression; expression of pro-Th2 cytokine genes (CACO-2 cells [2]; FIG. 2 B): reduced expression; Pro-Th2 cytokine and UPR-related gene expression in skin (BALB/c mice; established egg allergy, egg yolk plasma, 1 g/kg/day or 2 g/kg/day oral, FIG. 16A): inhibited; Pro-Th2 cytokine and UPR-related gene expression in lung (BALB/c mice; established egg allergy, egg yolk plasma, 1 g/kg/day or 2 g/kg/day oral, FIG. 16B): inhibited; development of food allergy (BALB/c mice; [7]): suppresses
2 | CCCCCCCCCCC[C@@H](C[C@@H]1OC(=O)[C@H]1CCCCCC)OC(=O)[C@H](CC(C)C)NC=O [Orlistat] | – | – | – | – | – | – | – | – | – | UPR-related or pro-Th2 gene expression by peanut extract (CACO-2 cells [4]): no effect; egg yolk plasma-induced UPR-associated and pro-Th2 cytokine gene expression (CACO-2 cells [4]): suppressed
3 | CCCCCCCCCCCCCCCC(=O)[O-].[Na+] [sodium palmitate] | – | – | – | – | – | – | – | – | – | induction of expression of the pro-Th2 cytokines (CACO-2 cells [1]; 24 hours, stimulant alone, real time PCR, FIG. 1): induced increased expression; pro-Th2 cytokine protein expression (IL-25, IL-33, TSLP) (CACO-2 cells [5]): increase; UPR-dependent induction of pro-Th2 cytokine genes [3]: stimulated
4 | C[C@H](CCC(=O)NCCS(=O)(=O)O)[C@H]1CC[C@H]2[C@@H]3[C@@H](O)C[C@@H]4C[C@H](O)CC[C@]4(C)[C@H]3CC[C@]12C [TUDCA, tauroursodeoxycholic acid] | strong suppression | suppressed | suppressed | suppressed | suppression | suppression | suppression | suppression | suppresses | –
5 | O=C(O)CCCc1ccccc1 [4-PBA, 4-phenylbutyrate] | strong suppression | – | – | – | – | – | – | – | suppresses | –
